ChEMBL document CHEMBL1201862, “PubChem BioAssay data set” (2004)
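Cells were grown in 96-well plates and exposed to each compound for 48 hours at five concentrations; endpoints were interpolated linearly between bracketing concentrations, or set to the highest concentration if not reached. GI50 = concentration required for 50% inhibition of growth.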 Active and inactive are the calls of the source. Rule as the data show it: active = GI50 up to about 1.1 µM and inactive = higher.

Columns and labels:
Test in all cases: NCI tumour cell line growth inhibition, 48 h
A549 = tested on: A549
Malme-3M = tested on: Malme-3M
HCC 2998 = tested on: HCC 2998
RXF 393 = tested on: RXF 393
U-251 = tested on: U-251
MDA-MB-231 = tested on: MDA-MB-231
IGROV-1 = tested on: IGROV-1
NCI-H23 = tested on: NCI-H23
CAKI-1 = tested on: CAKI-1
SNB-75 = tested on: SNB-75
CCRF-CEM = tested on: CCRF-CEM
SF-268 = tested on: SF-268
M14 = tested on: M14
SW-620 = tested on: SW-620
HCT-116 = tested on: HCT-116
MOLT-4 = tested on: MOLT-4
SR = tested on: SR
786-0 = tested on: 786-0
SK-MEL-28 = tested on: SK-MEL-28
MDA-N = tested on: MDA-N
TK-10 = tested on: TK-10
NCI-H226 = tested on: NCI-H226
OVCAR-3 = tested on: OVCAR-3
MDA-MB-435 = tested on: MDA-MB-435
NCI/ADR-RES = tested on: NCI/ADR-RES
Hs-578T = tested on: Hs-578T
HOP-62 = tested on: HOP-62
SF-539 = tested on: SF-539
MCF7 = tested on: MCF7
UACC-257 = tested on: UACC-257
HOP-92 = tested on: HOP-92
SK-OV-3 = tested on: SK-OV-3
OVCAR-5 = tested on: OVCAR-5
HT-29 = tested on: HT-29
NCI-H522 = tested on: NCI-H522
SK-MEL-2 = tested on: SK-MEL-2
DU-145 = tested on: DU-145
COLO 205 = tested on: COLO 205
SF-295 = tested on: SF-295
T47D = tested on: T47D
UACC-62 = tested on: UACC-62
ACHN = tested on: ACHN
NCI-H460 = tested on: NCI-H460
HL-60 = tested on: HL-60
OVCAR-8 = tested on: OVCAR-8
SNB-19 = tested on: SNB-19
SK-MEL-5 = tested on: SK-MEL-5
LOX IMVI = tested on: LOX IMVI
A498 = tested on: A498
KM12 = tested on: KM12
UO-31 = tested on: UO-31
K562 = tested on: K562
EKVX = tested on: EKVX
HCT-15 = tested on: HCT-15
SN12C = tested on: SN12C
OVCAR-4 = tested on: OVCAR-4
PC-3 = tested on: PC-3
BT-549 = tested on: BT-549
RPMI-8226 = tested on: RPMI-8226

SMILES: Cc1nc(Nc2nc3ccccc3[nH]2)[nH]c(=O)c1CCO
- GI50 (A549): > 100 µM (inactive)
- GI50 (Malme-3M): 25.6 µM (inactive)
- GI50 (HCC 2998): > 100 µM (inactive)
- GI50 (RXF 393): 21.7 µM (inactive)
- GI50 (U-251): 59.8 µM (inactive)
- GI50 (MDA-MB-231): 27.4 µM (inactive)
- GI50 (IGROV-1): 12.3 µM (inactive)
- GI50 (NCI-H23): 98.6 µM (inactive)
- GI50 (CAKI-1): 53.5 µM (inactive)
- GI50 (SNB-75): > 100 µM (inactive)
- GI50 (CCRF-CEM): > 69 µM (inactive)
- GI50 (SF-268): > 96.6 µM (inactive)
- GI50 (M14): 27.2 µM (inactive)
- GI50 (SW-620): 99.8 µM (inactive)
- GI50 (HCT-116): 77.6 µM (inactive)
- GI50 (MOLT-4): > 100 µM (inactive)
- GI50 (SR): 30.9 µM (inactive)
- GI50 (786-0): 65.6 µM (inactive)
- GI50 (SK-MEL-28): > 100 µM (inactive)
- GI50 (MDA-N): > 92 µM (inactive)
- GI50 (TK-10): 39.4 µM (inactive)
- GI50 (NCI-H226): 26.6 µM (inactive)
- GI50 (OVCAR-3): > 100 µM (inactive)
- GI50 (MDA-MB-435): > 100 µM (inactive)
- GI50 (NCI/ADR-RES): > 100 µM (inactive)
- GI50 (Hs-578T): 20.6 µM (inactive)
- GI50 (HOP-62): > 100 µM (inactive)
- GI50 (SF-539): 39.9 µM (inactive)
- GI50 (MCF7): > 100 µM (inactive)
- GI50 (UACC-257): 45.8 µM (inactive)
- GI50 (HOP-92): 55.3 µM (inactive)
- GI50 (SK-OV-3): 38.3 µM (inactive)
- GI50 (OVCAR-5): > 86.9 µM (inactive)
- GI50 (HT-29): > 100 µM (inactive)
- GI50 (NCI-H522): > 100 µM (inactive)
- GI50 (SK-MEL-2): 37.2 µM (inactive)
- GI50 (DU-145): 61.7 µM (inactive)
- GI50 (COLO 205): > 59.8 µM (inactive)
- GI50 (SF-295): > 100 µM (inactive)
- GI50 (T47D): 7.6 µM (inactive)
- GI50 (UACC-62): 68.9 µM (inactive)
- GI50 (ACHN): 50.9 µM (inactive)
- GI50 (NCI-H460): 34.6 µM (inactive)
- GI50 (HL-60): 75.9 µM (inactive)
- GI50 (OVCAR-8): > 53.2 µM (inactive)
- GI50 (SNB-19): > 100 µM (inactive)
- GI50 (SK-MEL-5): 70.3 µM (inactive)
- GI50 (LOX IMVI): 44.8 µM (inactive)
- GI50 (A498): > 100 µM (inactive)
- GI50 (KM12): > 100 µM (inactive)
- GI50 (UO-31): 46.8 µM (inactive)
- GI50 (K562): > 100 µM (inactive)
- GI50 (EKVX): > 100 µM (inactive)
- GI50 (HCT-15): 61.9 µM
- GI50 (SN12C): > 91.6 µM (inactive)
- GI50 (OVCAR-4): > 100 µM (inactive)
- GI50 (PC-3): > 100 µM (inactive)
- GI50 (BT-549): > 100 µM (inactive)

SMILES: CCCCCCCCCC(=O)N[C@@H](c1ccco1)[C@@H](O)C(=O)O[C@H]1C[C@@]2(O)[C@@H](OC(=O)c3ccccc3)[C@@H]3[C@]4(OC(C)=O)CO[C@@H]4C[C@H](O)[C@@]3(C)C(=O)[C@H](OC(C)=O)C(=C1C)C2(C)C
- GI50 (A549): 0.0318 µM (active)
- GI50 (Malme-3M): 0.0269 µM (active)
- GI50 (HCC 2998): 0.0703 µM (active)
- GI50 (RXF 393): 0.043 µM (active)
- GI50 (U-251): < 0.0241 µM (active)
- GI50 (MDA-MB-231): 0.101 µM (active)
- GI50 (IGROV-1): 0.0324 µM (active)
- GI50 (RPMI-8226): < 0.005 µM (active)
- GI50 (NCI-H23): 0.0385 µM (active)
- GI50 (CAKI-1): 2.85 µM (inactive)
- GI50 (SNB-75): 0.989 µM (active)
- GI50 (CCRF-CEM): 0.0178 µM (active)
- GI50 (SF-268): 0.158 µM (active)
- GI50 (M14): 0.0308 µM (active)
- GI50 (SW-620): 0.0243 µM (active)
- GI50 (HCT-116): 0.00539 µM (active)
- GI50 (MOLT-4): 0.0124 µM (active)
- GI50 (SR): 0.0101 µM (active)
- GI50 (786-0): 0.0282 µM (active)
- GI50 (SK-MEL-28): 0.0498 µM (active)
- GI50 (MDA-N): < 0.005 µM (active)
- GI50 (TK-10): 0.468 µM (active)
- GI50 (NCI-H226): 0.0311 µM (active)
- GI50 (OVCAR-3): 0.00914 µM (active)
- GI50 (MDA-MB-435): < 0.005 µM (active)
- GI50 (NCI/ADR-RES): 4.57 µM (inactive)
- GI50 (Hs-578T): 0.00865 µM (active)
- GI50 (HOP-62): 0.0593 µM (active)
- GI50 (SF-539): 0.0228 µM (active)
- GI50 (MCF7): 0.00695 µM (active)
- GI50 (UACC-257): 0.0374 µM (active)
- GI50 (HOP-92): 0.0296 µM (active)
- GI50 (SK-OV-3): 0.0269 µM (active)
- GI50 (OVCAR-5): 0.0196 µM (active)
- GI50 (HT-29): 0.00598 µM (active)
- GI50 (NCI-H522): 0.0149 µM (active)
- GI50 (DU-145): 0.106 µM (active)
- GI50 (COLO 205): < 0.005 µM (active)
- GI50 (SF-295): 0.0389 µM (active)
- GI50 (T47D): 0.178 µM (active)
- GI50 (UACC-62): 0.0467 µM (active)
- GI50 (ACHN): 2.92 µM (inactive)
- GI50 (NCI-H460): 0.0118 µM (active)
- GI50 (HL-60): 0.00966 µM (active)
- GI50 (OVCAR-8): 0.0298 µM (active)
- GI50 (SNB-19): 0.0442 µM (active)
- GI50 (SK-MEL-5): 0.0154 µM (active)
- GI50 (LOX IMVI): 0.0111 µM (active)
- GI50 (A498): 0.082 µM (active)
- GI50 (KM12): 0.00879 µM (active)
- GI50 (UO-31): 1.66 µM (inactive)
- GI50 (K562): 0.0187 µM (active)
- GI50 (EKVX): 10 µM (inactive)
- GI50 (HCT-15): 0.752 µM
- GI50 (SN12C): 0.0407 µM (active)
- GI50 (OVCAR-4): 1.34 µM (inactive)
- GI50 (PC-3): 0.64 µM (active)
- GI50 (BT-549): 0.0419 µM (active)
